Publication PMC9963013 (Proceedings of the National Academy of Sciences of the …, 2023)

Target: AtSFH5-Sec14 (Arabidopsis thaliana, UniProt Q8GXC6)
Test: X-ray crystal structure, […] Å
Format: binding
Details: central cavity; acyl chains switched relative to L-α-PA complex

AtSFH5-Sec14, sequence (Q8GXC6 76-365): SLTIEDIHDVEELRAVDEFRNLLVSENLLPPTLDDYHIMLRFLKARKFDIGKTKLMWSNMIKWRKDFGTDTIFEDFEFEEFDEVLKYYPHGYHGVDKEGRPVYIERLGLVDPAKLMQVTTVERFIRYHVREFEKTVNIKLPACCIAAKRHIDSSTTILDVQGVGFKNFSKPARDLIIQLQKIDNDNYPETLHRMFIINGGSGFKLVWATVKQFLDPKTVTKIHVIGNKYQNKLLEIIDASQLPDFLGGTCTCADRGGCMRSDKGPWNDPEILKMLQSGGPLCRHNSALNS

## CCCCCCCCCCCCCCCC(=O)OC[C@H](COP(=O)(O)O)OC(=O)CCCCCCCCCCCCCCC [DPPA, 1,2-dipalmitoyl-sn-glycero-3-phosphate]
  X-ray crystal structure, 2.1 Å: 7Y10 for AtSFH5-Sec14 in complex with DPPA
